Assay results taken from patent US7129275B2, “Compositions for treating acne comprising phytandiol amine” (Coreana Cosmetics Co., Ltd., priority 2001, dated 2006).

Legend:
Experiment in all cases: Minimum inhibitory concentration on reinforced clostridial agar
Conditions in all cases: 3 days at 35° C., anaerobic, complete growth inhibition
P. acne ATCC 11828 = format: cell-based, Propionibacterium acnes
Experimental: (§1) To evaluate an antimicrobial activity of the phytandiol amine of this invention against acne pathogen, the minimum inhibitory concentration (hereinafter referred to as “MIC”) of the samples shown in Table 1 was measured as follows: The sample to be tested was added to reinforced clostridial agar medium (available from Difco Co.) in the amount of 0.001–0.1%, followed by solidification of the medium. The suspension of acne pathogenic bacteria found in Table 1 was streaked on the surface of the medium and the medium was incubated for 3 days at 35° C. under anaerobic condition.

P. acnes ATCC 6919 = format: cell-based, Propionibacterium acnes
Experimental: as §1

P. avidum ATCC 25577 = format: cell-based, Propionibacterium avidum
Experimental: as §1

Row | SMILES | MIC (P. acne ATCC 11828) [%] | MIC (P. acnes ATCC 6919) [%] | MIC (P. avidum ATCC 25577) [%]
1 | O=C(OOC(=O)c1ccccc1)c1ccccc1 [Benzoyl peroxide] | 0.1 | 0.1 | 0.1
2 | CC[C@H]1OC(=O)[C@H](C)[C@@H](O[C@H]2C[C@@](C)(OC)[C@@H](O)[C@H](C)O2)[C@H](C)[C@@H](O[C@@H]2O[C@H](C)C[C@H](N(C)C)[C@H]2O)[C@](C)(O)C[C@@H](C)C(=O)[C@H](C)[C@@H](O)[C@]1(C)O [Erythromycin] | 0.02 | 0.02 | 0.02
